According to patent US6344180B1 (BioNebraska, Inc., priority 1999, dated 2002):
Ends that are not written are not given here.

Key:
[1] = system: pancreas; details: cited from earlier work
[2] = system: β-cell secretion; assay: Part two: 2.5 nmol GLP-1, glucagon test, combined glucose+GLP-1 injection and s.c. GLP-1, peak plasma insulin and C-peptide; type: in vivo, human; details: glucagon test 1 mg I.V.
Excerpt: (§1) The present study was divided into three parts.
(§2) Part one: Six type II diabetic patients (four men and two women, mean (range), age: 56 years (48-67 years); BMI: 31.1 kg/m^2 (27-38 kg/m^2); HbA1c; 9.6% (7,0-12.5%) ) and 6 healthy subjects individually matched for sex, age and BMI (age: 56 years (51-70 years); BMI: 31.6 kg/m^2 (26-37 kg/M^2); HbA1c: 5.5% (5.2-5.8%)). […] Part three 8 type II diabetic patients (seven men and one woman, age: 55 years (49-69 years); BMI: 30.9 kg/m^2 (27-35 kg/M^2); HbA1c: 7.6% (6.3-8.6%)) and 8 healthy subjects (age: 55 years (51-64 years); BMI 31.1 kg/m^2 (25-38 kg/m^2); HbA1c: 5.4% (5.0-6.0%)) participated. Four patients were treated with diet alone while four were treated with diet and oral antidiabetics (sulphonylureas and/or biguanides). […] All type II diabetic patients were diagnosed according to the criteria of National Diabetes Data Group. […] All agreed to participate after oral and written information.
(§3) All oral antidiabetics were discontinued 72 hours before the study.
(§4) Meal test: Venous blood was drawn 15, 10 and 0 min before and 15, 30, 45, 60, 75, 90, 120, 150 and 180 minutes after ingestion of a standard breakfast meal. […] The peptide was dissolved in sterilized water containing 2% human serum albumin (Albumin Nordisk, Novo Nordisk, Bagsvaerd, Denmark, guaranteed to be free of hepatitis-B surface antigen and human immunodeficiency virus antibodies) and subjected to sterile filtration. Appropriate amounts of peptide for each experimental subject were dispensed into glass ampoules and stored frozen under sterile conditions until the day of the experiment. Part two: β-cell function was examined on 3 different days. […] Fifteen minutes later plasma glucose was elevated to 15 mmol/l by intravenous glucose (50% w/v) administration as described above.
(§5) Plasma glucose concentrations were measured during the experiments using a glucose oxidase method with a Glucose Analyzer (Yellow Springs Instrument Model 23 A, USA). Plasma insulin concentrations were measured according to Albano et al using standards of human insulin and antibody code no. 2004. The sensitivity of the assay is approximately 3 pmol/l, the intraassay coefficient of variation is 8% at 48 pmol/l. C-peptide concentrations were determined by radioimmunoassay (RIA) as described by Heding et al employing the polyclonal antibody M1230[12]. […] The detection limit is approximately 60 pmol/l, the intra-assay coefficient of variance is 5%, interassay coefficient of variation is 7.3%. […] The assay has a detection limit of 5 pmol/l. […] The detection limit is 1 pmol/l.

[3] = system: β-cell secretion; assay: Part one: dose-response of I.V. bolus GLP-1 compared with glucagon test, peak plasma insulin and C-peptide; type: in vivo, human; details: glucagon test 1 mg I.V. bolus
Excerpt: as §1, §2, §3, §4, §5

[4] = system: β-cell secretion; assay: Part three: combined glucose+GLP-1 injection vs hyperglycemic clamp with L-arginine, maximal secretory capacity; type: in vivo, human; details: for Incremental C-peptide response (peak minus concentration at time of injection) / Incremental insulin response (peak minus concentration at time of injection): hyperglycemic clamp 30 mmol/l, 5 g L-arginine bolus at 45 min; for Absolute mean peak C-peptide concentration / Absolute mean peak insulin concentration: hyperglycemic clamp with 5 g L-arginine
Excerpt: as §1, §2, §3
During the hyperglycemic clamp, glucose (50% w/v) was injected at time zero to increase the plasma glucose to 30 mmol/l (calculated as follows: (30 mmol/l−fasting plasma glucose)×35 mg glucose×weight in kilogram). Plasma glucose was kept at 30 mmol/l by continuous infusion of glucose, which was adjusted according to a bedside measurement of plasma glucose ever 5 minutes. At 45 minutes, 5 g L-arginine monohydrochloride was injected as a bolus during 30 seconds. Blood was sampled 15, 10 and 0 minutes before and 5, 10, 15, 20, 25, 30, 35, 40, 45, 47, 48, 49, 51, 53, 55, 60, 65, 70, 75 and 90 minutes after elevation of plasma glucose. The L-arginine was dissolved in 50 ml of sterilized water and dispensed into glass ampoules and stored at 4° C. until the day of the experiment. Blood was sampled into fluoride tubes for measurement of glucose and into chilled EDTA tubes with aprotinin (500 KIU/ml blood; Trasylol, Bayer, Leverkusen, Germany) for peptide analyses. Tubes were immediately cooled on ice and centrifuged within 20 minutes at 4° C., and plasma was stored at −20° C. until analysis.
as §5

[5] = system: insulin secretion and blood glucose; details: infusions in patients with type II diabetes; cited from earlier work

## Glu Gly Thr Phe Thr Ser Asp Val Ser Ser Tyr Leu Glu Gly Gln Ala Ala Lys Glu Phe Ile Ala Trp Leu Val Lys Gly Arg Gly (EGTFTSDVSSYLEGQAAKEFIAWLVKGRG; listed as Homo sapiens) [SEQ. ID NO:5]
[1]
  Stimulation of production or release of insulin from the pancreas: do not stimulate

## glucagon
[2]; healthy controls
  Peak C-peptide concentration (mean ± SEM): 1995 ± 99 pmol/L
  Peak insulin concentration (mean ± SEM): 420 ± 61 pmol/L
[2]; type 2 diabetic patients
  Peak C-peptide concentration (mean ± SEM): 1780 ± 160 pmol/L
  Peak insulin concentration (mean ± SEM): 329 ± 50 pmol/L
[3]; healthy controls
  Peak C-peptide concentration (mean ± SEM): 1874 ± 158 pmol/L
  Peak insulin concentration (mean ± SEM): 360 ± 39 pmol/L
[3]; type 2 diabetic patients
  Peak C-peptide concentration (mean ± SEM): 1643 ± 178 pmol/L
  Peak insulin concentration (mean ± SEM): 265 ± 45 pmol/L

## Cl.N=C(N)NCCC[C@H](N)C(=O)O [L-arginine, L-arginine monohydrochloride]
[4]; healthy subjects
  Incremental C-peptide response (peak minus concentration at time of injection): 3391 ± 388 pmol/L
  Incremental insulin response (peak minus concentration at time of injection): 1921 ± 338 pmol/L
  Absolute mean peak C-peptide concentration: 6047 ± 652 pmol/L
  Absolute mean peak insulin concentration: 2384 ± 452 pmol/L
[4]; type II diabetic patients
  Incremental C-peptide response (peak minus concentration at time of injection): 1360 ± 250 pmol/L
  Incremental insulin response (peak minus concentration at time of injection): 628 ± 226 pmol/L
  Absolute mean peak C-peptide concentration: 3043 ± 508 pmol/L
  Absolute mean peak insulin concentration: 816 ± 268 pmol/L

## glucose-dependent insulinotropic polypeptide [GIP]
[5]
  Effect on insulin secretion and blood glucose: little or no effect

## Glu Gly Thr Phe Thr Ser Asp Val Ser Ser Tyr Leu Glu Gly Gln Ala Ala Lys Glu Phe Ile Ala Trp Leu Val Lys Gly Arg (NH2) (EGTFTSDVSSYLEGQAAKEFIAWLVKGR-NH2; listed as Homo sapiens) [SEQ. ID NO:6]
[1]
  Stimulation of production or release of insulin from the pancreas: do not stimulate
